The values below come from US9333193B2, “Compositions and methods for treating tuberculosis” (priority 2010, dated 2016).

The subject of assay [1] is Mycobacterium abscessus AAy-P-1. The assay is described as follows: Anti-mycobacterial activity of nitazoxanides, MIC in Middlebrook 7H9. Format: cell-based. Particulars: Middlebrook 7H9, 37° C. The protocol: (§1) (1) Strains: Mycobacterium smegmatis mc2155, Mycobacterium chelonae EOP-1, Mycobacterium marinum ATCC 927, Mycobacterium avium Va14(T), and Mycobacterium abscessus AAy-P-1).
(§2) (2) Medium: Middlebrook 7H9 containing 0.5% (vol/vol) glycerol and 10% (vol/vol) oleic acid-albumin.
(§3) (3) Incubation Temperature: 37° C., except M. marinum 30° C.
(§4) (4) Nitazoxanides: Precipitates were present in wells of nitazoxanides with high concentrations (250-31 μg/mL) except for 162080, 162088, 16b2026, and 16b2031.
(§5) The strains used were Mycobacterium smegmatis mc2155, Mycobacterium chelonae EOP-1, Mycobacterium marinum ATCC 927, Mycobacterium avium Va14(T), and Mycobacterium abscessus AAy-P-1. The medium use was Middlebrook 7H9 containing 0.5% (vol/vol) glycerol and 10% (vol/vol) oleic acid-albumin. Incubation Temperature was 37° C., except for M. marinum at 30° C. For nitazoxanides, precipitates were present in wells of nitazoxanides with high concentrations (250-31 μg/mL) except for 162080, 162088, 16b2026, and 16b2031.

In assay [2] the test system is Mycobacterium chelonae EOP-1. The assay is described as above. The class given is cell-based. As to conditions: Middlebrook 7H9, 37° C. The method, then:
as §1, §2, §3, §4, §5

For assay [3], the system named is Mycobacterium marinum ATCC 927. The assay is described as above. As to conditions: Middlebrook 7H9, 30° C. The class given is cell-based. The protocol:
as §1, §2, §3, §4, §5

Assay [4] deals with Mycobacterium avium Va14(T). The assay is described as above. Format: cell-based. Particulars: Middlebrook 7H9, 37° C. The protocol: as §1, §2, §3, §4, §5
For the next assay, the system named is TB organisms. As to conditions: cited from earlier work.
Assay [5] has as its system Mycobacterium smegmatis mc2155. The assay is described as follows: Anti-mycobacterial activity of nitazoxanides, MIC in Middlebrook 7H9. The class given is cell-based. As to conditions: Middlebrook 7H9, 37° C. The protocol:
as §1, §2, §3, §4
(5) Decolorization: Almost all the yellow nitazoxanides, namely 16b1090, 16b1092 and 16b1093, 16b1094, 16b2023, 16b2025, and 16b2026 were decolorized by M. smegmatis strain mc2155. None of the other mycobacterial strains decolorized the compounds. Note that the compound numbers are also referred to herein with the prefix VPC.
as §5
Decolorization: Almost all the yellow nitazoxanides, namely 16b1090, 16b1092 and 16b1093, 16b1094, 16b2023, 16b2025, and 16b2026 were decolorized by M. smegmatis strain mc2155. None of the other mycobacterial strains decolorized the compounds.

The test system of the next assay is M. tuberculosis. The assay is described as follows: microbe, parasite or virus in culture. Format: cell-based, Mycobacterium tuberculosis. As to conditions: agar proportion method. Details: % Inhibit growth, H37Rv / % Inhibit growth, Susceptible / % Inhibit growth, MDR / % Inhibit growth, XDR / inhibition: dose or concentration left out as unconfirmed.
For assay [6], the system named is Mycobacterium tuberculosis. Particulars: agar proportion.

Structures are written as SMILES. ≈ marks a conversion by molar mass, not a printed value. Like-named read-outs stand apart in the source and are kept apart here.

As for `CC(=O)Oc1ccccc1C(=O)Nc1ncc([N+](=O)[O-])s1` [Nitazoxanide, 2-(acetyloxy)-N-(5-nitro-2-thiazolyl)benzamide, reference compound], the MIC in assay [1] (Mycobacteroides abscessus, AAYP1, read-out: Minimal Inhibitory Concentration, M. abscessus) was 63 µg/mL (≈ 205 µM); in assay [2] (read-out: Minimal Inhibitory Concentration, M. chelonae), 63 µg/mL (≈ 205 µM); in assay [3] (Mycobacterium marinum, ATCC927, read-out: Minimal Inhibitory Concentration, M. marinum), 31 µg/mL (≈ 101 µM); in assay [4] (Mycobacterium avium, read-out: Minimal Inhibitory Concentration, M. avium) it was 250 µg/mL (≈ 814 µM); in assay [5] (Mycolicibacterium smegmatis, MC2155, read-out: Minimal Inhibitory Concentration, M. smegmatis), > 250 µg/mL. In addition, the “Action against TB in presence of proteins found in serum” value in the assay on TB organisms is “inhibited by proteins that would be found in serum”.

As for `O=C(Nc1sc([N+](=O)[O-])cc1[N+](=O)[O-])c1cccc(C(F)(F)F)c1` [VPC16b1092], the “% Inhibit growth, MDR” value with M. tuberculosis (MDR strain) is recorded as 100%. The “% Inhibit growth, Susceptible” value in the assay with M. tuberculosis (Susceptible strain) was determined as 100%. Further, the “% Inhibit growth, XDR” value in the assay with M. tuberculosis (XDR strain) was found to be 100%. Also, the “Potency against M. tuberculosis in words (Table 1)” value in the assay on M. tuberculosis was “most potent”. Besides, the “% Inhibit growth, H37Rv” value with M. tuberculosis (strain H37Rv) is 100%. Also, in assay [1], the “Minimal Inhibitory Concentration, M. abscessus” value worked out at 0.25 µg/mL. The “Minimal Inhibitory Concentration, M. chelonae” value in assay [2] worked out at 4 µg/mL. In assay [3], the “Minimal Inhibitory Concentration, M. marinum” value worked out at 4 µg/mL. Further, the “Minimal Inhibitory Concentration, M. avium” value in assay [4] came out at 8 µg/mL. Moreover, the MIC in assay [6] (isolate 234 (MDR-TB)) came to 2000 µg/mL (≈ 5540 µM); in assay [6] (isolate 283 (susceptible)) it was 2000 µg/mL (≈ 5540 µM); in assay [6] (isolate 565 (MDR-TB)), 2000 µg/mL (≈ 5540 µM); in assay [6] (isolate 694 (MDR-TB)), 1000 µg/mL (≈ 2770 µM); in assay [6] (isolate 750 (MDR-TB)), 2000 µg/mL (≈ 5540 µM); in assay [6] (isolate 823 (XDR-TB)) it was 2000 µg/mL (≈ 5540 µM). The MIC in assay [6] (isolate 971 (MDR-TB)) and in assay [6] (isolate H37Rv (Reference)) was 2000 µg/mL (≈ 5540 µM) in each case. The “Minimal Inhibitory Concentration, M. smegmatis” value in assay [5] stood at 31 µg/mL.
